From patent US8921571B2, “Pyrrolysine analogs” (The Ohio State University, priority 2009, dated 2014) come the findings set out here.

SMILES strings stand for the structures. Where a name gives a salt, the structure may show the parent alone. Read-outs that look alike come from different tables or passages of the source.

Test [1] deals with recombinant protein. Briefly: incorporation into a recombinant protein. The class given is cell-based.
For test [2], the system named is UAG stop codon readthrough of mCherry (Lys55) with PylT/PylS genes from Methanosarcina mazei. Put plainly: modified mCherry fluorescence protein assay for stop codon readthrough (Example 2). The class given is cell-based, E. coli strain BL21(DE3). The following applies: for mCherry production: Terrific Broth. On the procedure: The site-specific incorporation efficiencies of these analogs were measured with a modified fluorescence protein assay using a fluorescent protein as a reporting gene to monitor stop codon readthrough. This approach was made compatible with large scale measurements by 1) using mCherry instead of GFP to reduce the fluorescence background introduced by growth medium, 2) growing the host cells in 24-well plates to facilitate handling of multiple samples and minimize deviation between samples, and 3) measuring the fluorescence intensity of the cell culture in the plates to save the labor of electrophoresis and western blotting.
In this study, the Lys55 codon of mCherry was site-specifically mutated to UAG and inserted into the plasmid pPylST harbouring the pyrrolysine tRNA (PylT) and synthetase (PylS) genes from Methanosarcina mazei. E. coli strain BL21(DE3) transformed with this plasmid was grown in the Terrific Broth medium supplied with 2 mM pyrrolysine analog to be examined. […] These differences are seen in FIG. 3, where the results have been normalized against analog 3. Similar results were observed when the supplied analog concentration varied from 0.5 mM to 20 mM.
As analogs 4-6 were prepared and screened as ˜1:1 mixtures of diastereomers, we carried out further readthrough experiments with isomerically pure samples of 6 prepared from commercially available (R)- and (S)-propargylglycines. The readthrough efficiencies of L-6, D-6 and the enantiomer mixture were tested at various concentrations. […] This is seen in FIG. 4. […] One explanation is that the less efficient incorporable isomer L-6 is a competitive inhibitor of D-6.
The effect of the growth medium pH on the readthrough efficiency of D-6 was investigated using the modified mCherry assay. […] When 2 mM D-6 was used as substrate, the production of full-length mCherry increased as the pH of the growth medium increased. The total amount of produced mCherry peaked at pH 8.5 and dropped a little at pH 9.0 due to a lower cell density.

Test [3] has as its system UAG codon readthrough of mCherry (Lys55 codon mutated to UAG) with PylT/PylS. Put plainly: mCherry UAG codon readthrough assay (Example 1). It is filed as cell-based, E. coli strain BL21(DE3). The following applies: for readthrough of the UAG codon: Terrific Broth medium, varying concentrations. The procedure:
In order to evaluate the UAG codon readthrough efficiency for the two diastereomers, the brightly emitting red fluorescent protein, mCherry, was employed as a reporter. Briefly, the Lys55 codon of this protein was site-specifically mutated to UAG and inserted into the plasmid pPylST harbouring the pyrrolysine tRNA (PylT) and synthetase (PylS) genes. E. coli strain BL21(DE3) transformed with this plasmid was grown in the Terrific Broth medium supplied with either the (S,S)-isomer or (R,S)-isomer at varying concentrations. […] This is seen in the graph of FIG. 1, where the relative fluorescence of the (S,S)-isomer was higher at all concentrations.

Where [4] appears, read: 2 mM analog, normalized against analog 3, ~1:1 mixture of diastereomers.

Take `CC1(CC(=O)NCCCC[C@H](N)C(=O)O)N=N1` [Formula (11), N^6-(2-(3-Methyl-3H-diazirin-3-yl)acetyl)lysine trifluoroacetate]: the “incorporation into a recombinant protein” value in test [1] is “incorporated into a recombinant protein”. `C#CCC(N)C(=O)NCCCC[C@H](N)C(=O)O` (stereo partly drawn) [Formula (6)]: in test [2] (listed as enantiomer mixture), the “readthrough efficiency (in words)” value is “moderate efficiency”.

On to `C#CCCC(=O)NCCCC[C@H](N)C(=O)O` [Formula 7], for which the mCherry production result in test [2] (2 mM analog) is given as “no detectable mCherry production”. On to `C#CCC(N)C(=O)NCCCC[C@H](N)C(=O)O` (stereo partly drawn) [Formula 6], for which, in test [2], the “readthrough efficiency (in words)” value is recorded as “best substrate”. Further, in test [2] (setting [4]), the “readthrough efficiency, more efficient than analog 3” value is reported as 69%. For the compound `N[C@H](CS)C(=O)NCCCC[C@H](N)C(=O)O` [Formula (1)], the “readthrough of the UAG codon” value in test [3] is recorded as “enabled readthrough of the UAG codon”. Besides, in test [3] (versus (R,S)-isomer, FIG. 1), the “readthrough efficiency, comparison of the two isomers” value is reported as “much better substrate”. Take `C#CC[C@@H](N)C(=O)NCCCC[C@H](N)C(=O)O` [Formula D-6]: the “readthrough efficiency (in words)” value in test [2] is reported as “highly efficient”. The “readthrough efficiency, fold more efficient than L-6” value in test [2] (isomerically pure samples, various concentrations, FIG. 4) is on record as 35 fold. With `[N-]=[N+]=NCC(=O)NCCCC[C@H](N)C(=O)O` [Formula (10), N^6-(Azidoacetyl)lysine trifluoroacetate], in test [2] (setting [4]), the “readthrough efficiency, fold less efficient than analog 3” value stood at 30 fold. In the case of `N[C@@H](CCCCNC(=O)[C@@H](N)CS)C(=O)O` [Formula (2)], in test [3], the “readthrough of the UAG codon” value is “enabled readthrough of the UAG codon”. With `C#CCC(O)C(=O)NCCCC[C@H](N)C(=O)O` (stereo partly drawn) [Formula 5], the mCherry production result in test [2] (2 mM analog) is reported as “no detectable mCherry production”.
